Assays:
Mesothelioma cells = test: Cell-growth inhibition assay (MTT colorimetric assay); format: cell-based, human
Method: Various mesothelioma cell lines were established from specimens obtained from pleural effusions of patients with established pleural malignant mesothelioma. Cell cultures were performed according to standard methods. Briefly, pleural effusions were centrifuged and the cell pellets were transferred into 25 cm^2 tissue culture flasks. The medium consisted of RPMI 1640 supplemented with 10% fetal bovine serum, 2 mM glutamine, 10 mM HEPES buffer, 50 U/ml penicillin, and 50 μg/ml streptomycin. Cultures were maintained in humidified atmosphere of 5% CO2 at 37° C. and examined daily. When cells were confluent, a trypsin-EDTA mixture in PBS was used to detach the cells, and the cultures were used between passages 5 and 20.
Mesothelioma cells were counted and dispensed into eight, 96-well tissue-culture plates (Costar, Cambridge, Mass.) at a concentration of 2,000 cells/well in 100 μl of culture medium. […] Culture plates were then incubated for different times between 0 and 168 hours and cell proliferation was measured every 24 hours. […]
Cell proliferation was determined by a colorimetric assay using MTT [3(4,5-dimethylthiazol-2yl)2,5-diphenyltetrazolium bromide], a tetrazolium salt which is reduced to a colored formazan product by reducing enzymes present only in metabolically active cells. (See Alley et al., “Feasibility of drug screening with panel of human tumor cell lines using a microculture tetrazolium assay” Cancer Res. 48: 589-601, 1988.) Thus, metabolically active cells such as cells undergoing division will produce more formazan, which can be detected by a spectrophotometer.
Briefly, twenty-five μls of MTT solution were added to culture wells containing cells as described above. […] Absorption of each well was measured using a spectrophotometer at 540 nm. The effect of α-MSH on cell proliferation was determined as percent OD difference in α-MSH treated wells relative to control wells. […]

NF-κB = conditions: U937 cells; cited from earlier work
[1] = in vivo; cited from earlier work

SYSMEHFRWGKPV (listed as Homo sapiens) [α-MSH, thirteen amino-acid peptide produced by post-translational processing of propiomelanocortin]
Dose dependence of the inhibitory effect on mesothelioma cell proliferation (Mesothelioma cells; 10^-6 to 10^-4 M, FIG. 2): dose-dependent | Concentration at which the inhibitory effect was most significant and consistent (Mesothelioma cells; FIG. 2): 10^−4 M | Cell proliferation of treated versus control wells, early intervals (Mesothelioma cells; intervals between 24 and 72 h): no difference in cell proliferation | NF-κB activation induced by TNF-α, endotoxin, ceramide and okadaic acid (NF-κB): downregulates NF-κB activation

[Nle4-D-Phe7]-α-MSH
Potency in reducing fever relative to the parent peptide α-MSH [1]: approximately ten times more potent

Reference: patent US20030108523A1, “Cancer treatment system” (priority 2001, published 2003)
